# ChEMBL document CHEMBL1201862, “PubChem BioAssay data set” (2004)
#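 Interpolation was linear, between the two tested concentrations surrounding the appropriate level; five concentrations were tested over 48 hours in 96-well plates. GI50 marks 50% less growth.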 Activity calls are given as the source filed them. Cut-off read from the data, not from the text of the source: active = GI50 up to about 1.1 µM and inactive = higher. Non-standard residues stand in square brackets, D forms with d. Residues, ends and D or L forms follow the SMILES beside them. ξ: configuration not given here. *: point of attachment. NMeF = CN[C@@H](Cc1ccccc1)C(=O)O; NMeV = CN[C@H](C(=O)O)C(C)C; ξNMeV = CNC(C(=O)O)C(C)C; Boc = CC(C)(C)OC(=O)*; OBn = c1ccc(CO*)cc1
# Legend:
# Test in all cases: NCI-60 cell line screen, 48 h
# LXFL 529 = tested on: LXFL 529
# DMS-273 = tested on: DMS-273
# KM-20L2 = tested on: KM-20L2
# M19-MEL = tested on: M19-MEL
# DLD-1 = tested on: DLD-1
# DMS-114 = tested on: DMS-114
# SNB-78 = tested on: SNB-78
# HOP-18 = tested on: HOP-18
# RXF 631 = tested on: RXF 631
SMILES,GI50 (LXFL 529),GI50 (DMS-273),GI50 (KM-20L2),GI50 (M19-MEL),GI50 (DLD-1),GI50 (DMS-114),GI50 (SNB-78),GI50 (HOP-18),GI50 (RXF 631)
CN1C(=O)CN2C(Cl)(Cl)C2(c2ccccc2F)c2cc([N+](=O)[O-])ccc21 (stereo not drawn),58.1 µM (inactive),39.4 µM (inactive),26.7 µM (inactive),65.6 µM (inactive),35.1 µM (inactive),42.8 µM (inactive),–,–,–
O=[N+]([O-])c1ccc(C2SCc3nc4ccccc4n32)cc1 (stereo not drawn),43.4 µM (inactive),54.1 µM (inactive),> 100 µM (inactive),81.8 µM (inactive),89.7 µM (inactive),35.1 µM (inactive),> 100 µM (inactive),88.3 µM (inactive),> 100 µM (inactive)
COc1ccc(OC)c2c1CC(C(=O)O)(C(=O)O)CC2=O,> 100 µM (inactive),–,> 100 µM (inactive),–,–,> 100 µM (inactive),> 100 µM (inactive),–,–
CC(C)N(C(=O)C12C3C4C1C1C4(C#N)C3C12C#N)C(C)C (stereo not drawn),> 100 µM (inactive),–,> 100 µM (inactive),> 100 µM (inactive),> 100 µM (inactive),> 100 µM (inactive),> 100 µM (inactive),> 100 µM (inactive),> 100 µM (inactive)
CC(=O)N/C(=C\c1ccccc1/C=C(\NC(C)=O)c1nc2cc(C)c(C)cc2[nH]1)c1nc2cc(C)c(C)cc2[nH]1,17.1 µM (inactive),2.56 µM (inactive),29.4 µM (inactive),10.7 µM (inactive),19.2 µM (inactive),0.23 µM (active),10.7 µM (inactive),–,–
C=CCC12CC(=O)CCC1CC(=O)C2 (stereo not drawn),> 100 µM (inactive),> 100 µM (inactive),> 100 µM (inactive),> 100 µM (inactive),> 100 µM (inactive),> 100 µM (inactive),> 100 µM (inactive),> 100 µM (inactive),–
CCOC(=O)C1=C(C)N(NC(=O)OC)C2(N)N(NC(=O)OC)C(C)=C(C(=O)OCC)C12C#N (stereo not drawn),> 100 µM (inactive),> 100 µM (inactive),> 100 µM (inactive),> 100 µM (inactive),> 100 µM (inactive),> 100 µM (inactive),–,–,–
C[C@H](NC(=O)OC1C2C=CC(O)C1CC2)c1ccccc1 (stereo partly drawn),> 100 µM (inactive),24.4 µM (inactive),45.3 µM (inactive),–,89.1 µM (inactive),60.8 µM (inactive),> 100 µM (inactive),> 100 µM (inactive),–
Cc1ccc(C2C(Cl)C(=O)N2n2cnc3ccccc3c2=O)cc1 (stereo not drawn),> 100 µM (inactive),> 100 µM (inactive),> 100 µM (inactive),> 100 µM (inactive),> 100 µM (inactive),> 100 µM (inactive),> 100 µM (inactive),18.1 µM (inactive),–
O=NN(CCCl)C(=O)N[C@H]1CC[C@@H](CC(=O)O)CC1,–,> 100 µM (inactive),> 100 µM (inactive),> 100 µM (inactive),> 100 µM (inactive),> 100 µM (inactive),> 100 µM (inactive),> 100 µM (inactive),–
c1ccc(/N=c2\snc3scc(-c4ccccc4)n23)cc1,33.5 µM (inactive),38.8 µM (inactive),–,32.3 µM (inactive),36.9 µM (inactive),30.3 µM (inactive),57.3 µM (inactive),24.8 µM (inactive),66.8 µM (inactive)
O=C(c1ccccc1)c1ccc2cccc(OC3OC(CO)C(O)C(O)C3O)c2n1 (stereo not drawn),> 100 µM (inactive),> 100 µM (inactive),> 100 µM (inactive),–,> 100 µM (inactive),> 100 µM (inactive),> 100 µM (inactive),> 100 µM (inactive),–
COc1ccc(C2S/C(=C\c3ccc(O)cc3)C(=O)N2NC(=O)Cc2ccccc2)cc1 (stereo not drawn),> 100 µM (inactive),> 100 µM (inactive),–,> 100 µM (inactive),> 100 µM (inactive),> 100 µM (inactive),–,> 100 µM (inactive),–
CCN1C(C)=NC2C(=O)c3ccccc3C(=O)C21 (stereo not drawn),94.4 µM (inactive),48.6 µM (inactive),27.2 µM (inactive),34.8 µM (inactive),–,32.2 µM (inactive),–,–,> 100 µM (inactive)
O=C(O)CNS(=O)(=O)c1ccc(NC(=O)c2ccc([N+](=O)[O-])cc2)cc1,> 100 µM (inactive),> 100 µM (inactive),> 100 µM (inactive),> 100 µM (inactive),> 100 µM (inactive),–,–,> 100 µM (inactive),> 100 µM (inactive)
C[C@@H]1CC2(C[C@@H](C)C3[C@@H](CC4(C)CCCC5C6=CC(O)(CC[C@]34C)OC6=CC(=O)OC5(C)C)O2)OC1=O (stereo partly drawn),> 100 µM (inactive),> 100 µM (inactive),–,–,> 100 µM (inactive),> 100 µM (inactive),–,> 100 µM (inactive),–
COc1cc(C2c3cc4c(cc3[C@@H](Nc3ccc(C(=O)O)cc3)C3COC(=O)[C@H]23)OCO4)cc(OC)c1O (stereo partly drawn),11 µM (inactive),7.16 µM (inactive),–,15.7 µM (inactive),–,–,10.7 µM (inactive),–,–
CCC(=O)O[C@@H]1C2C(OC(C)=O)C34COC(C)([C@@H]3C3C(C[C@]3(C)OC(C)=O)[C@@H](OC(=O)c3ccccc3)C4=O)[C@H](OC(C)=O)[C@@]2(OC(C)=O)C[C@@H]1C (stereo partly drawn),34.9 µM (inactive),44.1 µM (inactive),> 100 µM (inactive),32.8 µM (inactive),> 100 µM (inactive),23.3 µM (inactive),5.5 µM (inactive),> 100 µM (inactive),86.1 µM (inactive)
CC(C)C(C(=O)N(C)[C@H](C(=O)N1CCC[C@H]1C(=O)N(C)[C@@H](Cc1ccccc1)C(=O)OCc1ccccc1)C(C)C)N(C)C(=O)[C@@H](NC(=O)OC(C)(C)C)C(C)C (stereo partly drawn) (Boc-V[ξNMeV][NMeV]P[NMeF]-OBn),15.1 µM (inactive),5.48 µM (inactive),> 31.6 µM (inactive),30 µM (inactive),24.9 µM (inactive),11 µM (inactive),> 31.6 µM (inactive),32.1 µM (inactive),–
COC[C@@H]1Cc2cc(OC)c3c(c2[C@H](c2ccc(OC)c(OC)c2)[C@H]1COC)OCO3 [HYPOPHYLLANTHIN],> 100 µM (inactive),> 100 µM (inactive),> 100 µM (inactive),> 100 µM (inactive),47.3 µM (inactive),> 100 µM (inactive),–,> 100 µM (inactive),> 100 µM (inactive)
